Patent US11046798B2, “Phosphono-phosphate containing compounds and polymers” (The Procter & Gamble Company, priority 2017, dated 2021)
Where “and” joins values, the source holds several entries; their conditions need not be identical. Equal entries are not always repeated.

Columns and labels:
[1] = Powder Stain Removal Model (PSRM)
Text: The Powder Stain Removal Model (PSRM) is a screening technique where hydroxyapatite powder (HAP) is used as a substrate for stain accumulation. The purpose of this technique is to illustrate and quantify the stain removal properties of chemical agents used in oral care. Hydroxyapatite powder provides a large surface area to which tea chromogens adsorb. […] The magnitude of stain removal can then be quantified by image analysis. A trial of this model can be completed in three days. Steps involved in PSRM are described below.
Prepare large batch of tea stain HAP by stirring 10 g of HAP powder in 200 ml of filtered tea for 5 minutes. Divide into centrifuge tubes and centrifuge at 15,000 rpm for 15 mins. Wash pellet by adding in 25 ml of water, vortexing, centrifuging at 15,000 rpm for 15 mins, and pipet out liquid. Make sure pellet breaks up during vortexing. Repeat wash.
Place centrifuge tubes in convection oven (55-65° C.) overnight to dry stained HAP. Once dried, pool stained HAP together and grind to a fine powder with pestle and mortar.
Tube is vortexed for I minute to fully suspend HAP in treatment followed by centrifugation at 15,000 rpm for 15 mins. After centrifugation, supernatant is decanted and pellet redistributed by adding 25 ml of water, vortexing, centrifuging at 15,000 rpm for 15 mins, and decanting-making sure pellet breaks up during vortexing. The wash cycle is repeated one more time.
Vortex pellet in approximately 10 ml of water until fully suspended followed by filtering under vacuum onto a Millipore filter disk (Membrane Filters 4.5 μm, 47 mm Catalog #HAWP04700, Millipore Corporation, Bedford, Mass.). Prepare a control disk using=200 mg of untreated, stained HAP. Filter disks are then dried overnight in flat position and then laminated.
Whitelight system: HAP disk (untreated HAP control and HAP treatments) is placed in a stabilized sample holder. The color is measured using a digital camera camera having a lens equipped with a polarizer filter (Camera model no. CANON EOS 70D from Canon Inc., Melville, N.Y. with NIKON 55 mm micro-NIKKOR lens with adapter). The light system is provided by Dedo lights (model number DLH2) equipped with 150 watt, 24V bulbs model number (Xenophot model number HL X64640), positioned about 30 cm apart (measured from the center of the external circular surface of one of the glass lens through which the light exits to the other) and aimed at a 45 degree angle such that the light paths meet on the HAP disk. Image analysis is performed using Whitelight with Ultragrab, Optimas and Giant Imaging software.
Usual controls for a single polymer PSRM are water as a treatment followed by exposure to tea, and water without exposure to tea. Additionally, pyrophosphate and polyphosphate are run as internal controls. […]

[2] = Powder Stain Prevention Model (PSPM)
Text: The Powder Stain Prevention Model (PSPM) is a screening technique where hydroxyapatite powder (HAP) is used as a substrate for stain accumulation. The general purpose of this technique is to illustrate and quantify the stain prevention ability or staining potential of chemical agents used in oral care. Hydroxyapatite powder provides a large surface area to which tea chromogens adsorb. Pretreatment of HAP with oral care actives, either in rinse or dentifrice form, results in different levels of stain accumulation depending upon the ability of the actives to block or enhance the binding of these chromogens onto HAP surface. The magnitude of stain can then be quantified by image analysis.
Tube is vortexed for 30 seconds to fully suspend HAP in treatment followed by centrifugation at 15,000 rpm for 15 mins. After centrifugation, supernatant is decanted and pellet redistributed by adding 25 ml of water, vortexing, centrifuging at 15,000 rpm for 15 mins, and decanting-making sure pellet breaks up during vortexing. The wash cycle is repeated two more times.
After final water wash, 20 ml of filtered tea (1 Lipton tea bag per 100 ml of hot water seeped for 5 minutes, filtered and used at 50° C.) is added to each pellet and vortexed for 30 seconds to fully suspend HAP in tea. Powder suspension is centrifuged at 15,000 rpm for 15 mins and decanted. About 25 ml of water is added to the tube, vortexed and then centrifuging at 15,000 rpm for 15 mins. The liquid is decanted and wash cycle is repeated 2 more times.
Vortex pellet in approximately 10 ml of water until fully suspended followed by filtering under vacuum onto a Millipore filter disk (Membrane Filters 4.5 μm, 47 mm Catalog #HAWP04700, Millipore Corporation, Bedford, Mass.). Prepare a control disk using. −200 mg of untreated, unstained HAP. Filter disks are then dried overnight in flat position and then laminated.
Whitelight system: HAP disk (untreated HAP control and HAP treatments) is placed in a stabilized sample holder. The color is measured using a digital camera having a lens equipped with a polarizer filter (Camera model no. CANON EOS 70D from Canon Inc., Melville, N.Y. with NIKON 55 mm micro-NIKKOR lens with adapter). The light system is provided by Dedo lights (model number DLH2) equipped with 150 watt, 24V bulbs model number (Xenophot model number HL X64640), positioned about 30 cm apart (measured from the center of the external circular surface of one of the glass lens through which the light exits to the other) and aimed at a 45 degree angle such that the light paths meet on the HAP disk. Image analysis is performed using Whitelight with Ultragrab, Optimas and Giant Imaging software.
Usual controls for a single polymer PSPM are water as a treatment followed by exposure to tea, and water without exposure to tea. […]

O=P(O)(O)OP(=O)(O)O [Pyrophosphate]
Delta L [1]: 14.2 | PSRM (ΔL) [1]: 13.0-18 | PSRM ΔL [1]: 12.4 and 13.5 | Delta L [2]: 16.3 | PSPM (ΔL) [2]: 12.2-16.0 | PSPM ΔL [2]: 18.0 and 14.3
